This is an account of results in patent US5607948A, “Dipiperidine derivatives” (Sumitomo Pharmaceuticals Co., Ltd., priority 1993, dated 1997).

pIC50: −log10 of the molar value.

Experiment [1] relates to platelet aggregation in platelet-rich plasma (PRP). Briefly: Platelet aggregation inhibiting effect (ADP-induced aggregation in platelet-rich plasma). Format: cell-based, human (healthy man). To be noted: Homo sapiens, PRP of a healthy person, ADP final concentration 3 μg/ml, 37° C., read-out: IC50 (concentration needed to inhibit the platelet aggregation by 50%). As for the experimental part: Blood was collected from the elbow vein of a healthy person, to which was added 3.8% sodium citrate of 1/10 times by volume the blood. This was centrifuged at 1000 rpm (150 g) for 10 minutes, and the resulting supernatant of a platelet-rich plasma (PRP) was collected. 2 μl of a solution of a test compound was added to 200 μl of the PRP and kept at 37° C. for 2 minutes while stirring at 1000 rpm. Then, 22 μl of a platelet aggregation promoter of ADP (adenosine diphosphate, final concentration: 3 μg/ml) was added. The degree of platelet aggregation of the sample was measured by colorimetry, using a hematracer (ex Niko Bioscience Co.). The platelet aggregation inhibiting activity of the test compound was represented by IC50, which indicates the concentration of the compound that was needed to inhibit the platelet aggregation by 50%.

The target in the next experiment is T1, Fibrinogen (Homo sapiens, UniProt P05106+P08514).
T1 construct: endogenous in cells
Briefly: Bonding of platelets to fibrinogen. Format: binding. To be noted: activated, paraformaldehyde-fixed platelets; plate coated with fibrinogen 5 μg/ml; 37° C. 2 hours; read-out: IC50, inhibition of bonding of platelets to Fibrinogen. On the procedure:
(§1) 50 ng/ml of PGI2 was added to the PRP sample and subjected to centrifugation at 11000 rpm for 2 minutes, by which the platelets were precipitated. The platelet precipitate was washed with 3.8 mM Hepes buffer (pH 7.4, Tyrode-Hepes buffer) containing 0.14 M NaCl, 2.7 mM KCl, 3.7 mM NaH2 PO4, 0.98 mM MgCl2, 1 mg/ml of glucose, 50 ng/ml of PGI2 and 0.35% BSA. 5 μM epinephrine and 30 μM ADP were added in this order and left at room temperature for 5 minutes, by which the platelets were activated. These were then transferred into a 0.05% paraformaldehyde solution and left at room temperature for 30 minutes, whereby the platelets were fixed in the solution. The thus-fixed platelets were suspended in the Hepes buffer at a concentration of 2×10^8 ml^-1.
(§2) Fibrinogen (ex Kabi Co.), fibronectin (ex Sigma Co.) or collagen (ex Horm Co.) was diluted with 0.1 M NaHCO3 to have a concentration of 5 μg/ml, put into each well of a 96-well microplate (ex Nunc Co.) at 200 μl/well and left at 4° C. overnight. Then, the plate was washed with a phosphate buffered saline (PBS) and blocked with 3% BSA at 37° C. for 1 hour. To the plate were added the platelet suspension (final concentration: 10^8 ml^-1) and a varying concentration of a test compound (total amount: 200 μl/well), and the plate was kept at 37° C. for 2 hours. Then, this was washed with PBS, and 2 μg/ml of an anti-CD9 monoclonal antibody was added and kept at 37° C. for 60 minutes. Next, this was treated with a 1/1000 dilution of an enzyme (HRP)-labeled anti-mouse IgG polyclonal antibody at 37 °C. for 60 minutes, and 100 μl/well of an HRP-coloration substrate (0.1 M phosphate buffer with pH 5, containing 0.4 mg/ml of o-phenylenediamine, 0.01% H2 O2 and 0.1 M citric acid) was added and reacted at room temperature for 15 minutes. By adding 20 μl/well of 4.5 M H2 SO4, the reaction was stopped. Then, the absorbance of the thus-reacted sample at 490 nm was measured. […]

In the next experiment the test system is Fibronectin. Briefly: Bonding of platelets to fibronectin. Format: binding. To be noted: activated, paraformaldehyde-fixed platelets; plate coated with fibronectin 5 μg/ml; 37° C. 2 hours; read-out: IC50, inhibition of bonding of platelets to Fibronectin. On the procedure:
as §1, §2

The next experiment concerns Collagen. Briefly: Bonding of platelets to collagen. Format: binding. To be noted: activated, paraformaldehyde-fixed platelets; plate coated with collagen 5 μg/ml; 37° C. 2 hours; read-out: IC50, inhibition of bonding of platelets to Collagen. On the procedure: as §1, §2

T1 sequence (P08514 32-887 limits assumed): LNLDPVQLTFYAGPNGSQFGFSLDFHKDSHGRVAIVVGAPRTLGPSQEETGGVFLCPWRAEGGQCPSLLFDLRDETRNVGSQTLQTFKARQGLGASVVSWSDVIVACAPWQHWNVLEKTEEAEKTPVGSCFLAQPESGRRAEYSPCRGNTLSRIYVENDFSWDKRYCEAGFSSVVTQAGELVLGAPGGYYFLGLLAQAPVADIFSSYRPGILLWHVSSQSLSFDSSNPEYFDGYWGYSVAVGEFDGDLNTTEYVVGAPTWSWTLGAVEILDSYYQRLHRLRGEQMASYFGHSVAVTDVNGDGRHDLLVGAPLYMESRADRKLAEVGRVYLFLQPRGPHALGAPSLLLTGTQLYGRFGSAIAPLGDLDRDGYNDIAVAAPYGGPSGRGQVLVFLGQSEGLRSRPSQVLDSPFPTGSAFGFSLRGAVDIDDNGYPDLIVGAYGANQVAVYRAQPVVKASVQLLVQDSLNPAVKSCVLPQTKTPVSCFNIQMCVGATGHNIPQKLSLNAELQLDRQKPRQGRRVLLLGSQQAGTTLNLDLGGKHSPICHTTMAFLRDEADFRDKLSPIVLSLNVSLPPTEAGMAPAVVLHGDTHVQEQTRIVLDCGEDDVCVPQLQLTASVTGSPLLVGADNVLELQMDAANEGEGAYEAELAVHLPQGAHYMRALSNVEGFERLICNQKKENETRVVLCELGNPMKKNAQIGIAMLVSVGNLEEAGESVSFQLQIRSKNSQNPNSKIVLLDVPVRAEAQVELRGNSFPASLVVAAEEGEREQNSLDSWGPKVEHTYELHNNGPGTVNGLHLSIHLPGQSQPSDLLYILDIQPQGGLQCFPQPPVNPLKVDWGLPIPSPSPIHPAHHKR
T1 sequence (P08514 891-1039 limits assumed): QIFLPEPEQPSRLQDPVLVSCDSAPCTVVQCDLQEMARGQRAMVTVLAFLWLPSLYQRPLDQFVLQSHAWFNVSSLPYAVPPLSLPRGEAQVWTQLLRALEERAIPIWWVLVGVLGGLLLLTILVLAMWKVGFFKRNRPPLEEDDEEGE
T1 sequence (P05106 27-788): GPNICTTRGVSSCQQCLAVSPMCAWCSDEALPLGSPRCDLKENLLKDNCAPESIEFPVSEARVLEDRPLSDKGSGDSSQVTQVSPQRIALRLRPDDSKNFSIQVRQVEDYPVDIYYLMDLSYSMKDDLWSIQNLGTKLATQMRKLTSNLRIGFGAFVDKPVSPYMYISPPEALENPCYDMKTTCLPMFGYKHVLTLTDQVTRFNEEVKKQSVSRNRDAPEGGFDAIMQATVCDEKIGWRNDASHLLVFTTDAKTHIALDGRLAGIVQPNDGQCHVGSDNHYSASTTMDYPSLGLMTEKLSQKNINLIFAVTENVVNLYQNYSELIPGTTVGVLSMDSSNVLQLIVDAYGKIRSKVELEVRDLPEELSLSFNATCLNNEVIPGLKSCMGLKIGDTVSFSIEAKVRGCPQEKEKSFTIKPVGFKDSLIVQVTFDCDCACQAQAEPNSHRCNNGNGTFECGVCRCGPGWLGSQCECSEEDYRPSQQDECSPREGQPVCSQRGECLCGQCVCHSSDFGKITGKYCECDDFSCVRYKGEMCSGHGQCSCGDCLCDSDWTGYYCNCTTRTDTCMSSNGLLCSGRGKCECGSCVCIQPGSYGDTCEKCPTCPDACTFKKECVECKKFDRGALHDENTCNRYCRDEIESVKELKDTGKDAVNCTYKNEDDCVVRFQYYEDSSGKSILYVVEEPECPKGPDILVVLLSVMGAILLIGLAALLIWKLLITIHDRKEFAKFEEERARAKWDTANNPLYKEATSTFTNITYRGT

As to `C[C@H](NC(=O)CCC1CCNCC1)C(=O)N1CCC(OCC(=O)O)CC1` [Compound (23), (1-(N-(3-(4-piperidyl)propanoyl)-L-alanyl)-4-piperidyloxy)acetic acid], the pIC50 in experiment [1] was 6.41.
As for `O=C(O)COC1CCN(C(=O)[C@H](Cc2ccc(O)cc2)NC(=O)CCC2CCNCC2)CC1` [Compound (20), (1-(N-(3-(4-piperidyl)propanoyl)-L-tyrosyl)-4piperidyloxy)acetic acid], the pIC50 in experiment [1] is 6.87.
For `O=C(O)COC1CCN(C(=O)[C@H](Cc2ccccc2)NC(=O)CCC2CCNCC2)CC1` [Compound (21), (1-(N-(3-(4-piperidyl)propanoyl)-L-phenylalanyl)-4-piperidyloxy)acetic acid], in experiment [1], the pIC50 is 6.04.
On to `O=C(O)CCC1CCN(C(=O)[C@H](Cc2ccc(O)cc2)NC(=O)CCC2CCNCC2)CC1` [Compound (42), 3-(1-(N-(3-(4-piperidyl)propanoyl)-L-tyrosyl)-4-piperidyl)propanoic acid], for which the pIC50 in experiment [1] was 5.76.
Take `COc1ccc(C[C@H](NC(=O)CCC2CCNCC2)C(=O)N2CCC(CCC(=O)O)CC2)cc1` [Compound (35), 3-(1-(N-(3-(4-piperidyl)propanoyl)-O-methyl-L-tyrosyl)-4-piperidyl)propanoic acid]: in experiment [1], the pIC50 was 6.15.
Regarding `O=C(O)CCC1CCN(C(=O)[C@H](Cc2ccc(O)cc2)NC(=O)COC2CCNCC2)CC1` [Compound (44), 3-(1-(N-(4-piperidyloxyacetyl)-L-tyrosyl)-4-piperidyl)propanoic acid], the pIC50 in experiment [1] is 6.20.
In the case of `O=C(O)COC1CCN(C(=O)CNC(=O)CCC2CCNCC2)CC1` [Compound (24)], in experiment [1], the pIC50 was 5.62.
With `COc1ccc(C[C@H](NC(=O)COC2CCNCC2)C(=O)N2CCC(OCC(=O)O)CC2)cc1` [Compound (15)], the pIC50 at Fibrinogen is 6.60; in experiment [1], 7.32; in the experiment with Fibronectin, 6.62; in the experiment on Collagen it was less than 4.00.
`COc1ccc(C[C@H](NC(=O)CCC2CCNCC2)C(=O)N2CCC(OCC(=O)O)CC2)cc1` [Compound (12)]: the pIC50 on Fibrinogen is 6.35; in experiment [1] it was 7.22; in the experiment on Fibronectin it was 4.17; with Collagen, less than 4.00.
For `CC(C)[C@H](NC(=O)CCC1CCNCC1)C(=O)N1CCC(OCC(=O)O)CC1` [Compound (22), (1-(N-(3-(4-piperidyl)propanoyl)-L-valyl)-4-piperidyloxy)acetic acid], in experiment [1], the pIC50 was 5.96.
Take `O=C(O)COC1CCN(C(=O)[C@H](Cc2c[nH]c3ccccc23)NC(=O)CCC2CCNCC2)CC1` [Compound (28), (1-(N-(3-(4-piperidyl)propanoyl)-L-tryptophyl)-4-piperidyloxy)acetic acid]: the pIC50 in experiment [1] was 6.36.
The same measure, in the same setting: for `COc1ccc(C[C@H](NC(=O)COC2CCNCC2)C(=O)N2CCC(CCC(=O)O)CC2)cc1` [Compound (37)] the value was 6.93; for `CC(C)C[C@H](NC(=O)CCC1CCNCC1)C(=O)N1CCC(OCC(=O)O)CC1` [Compound (26), (1-(N-(3-(4-piperidyl)propanoyl)-L-leucyl)-4-piperidyloxy)acetic acid], 6.03; for `O=C(O)COC1CCN(C(=O)[C@@H]2CCCN2C(=O)CCC2CCNCC2)CC1` [Compound (25), (1-(N-(3-(4-piperidyl)propanoyl)-L-prolyl)-4-piperidyloxy)acetic acid], 6.50.
The same measure, in the same setting: for `O=C(O)COC1CCN(C(=O)[C@H](CO)NC(=O)CCC2CCNCC2)CC1` [Compound (29), (1-(N-(3-(4-piperidyl)propanoyl)-L-seryl)-4-piperidyloxy)acetic acid] the value was 6.05.
Regarding `CC[C@H](C)[C@H](NC(=O)CCC1CCNCC1)C(=O)N1CCC(OCC(=O)O)CC1` [Compound (27), (1-(N-(3-(4-piperidyl)propanoyl)-L-isoleucyl)-4-piperidyloxy)acetic acid], in experiment [1], the pIC50 was 6.29.
For the compound `O=C(O)COC1CCN(C(=O)[C@H](Cc2ccc(O)cc2)NC(=O)COC2CCNCC2)CC1` [Compound (19), (1-(N-(4-piperidyloxyacetyl)-L-tyrosyl)-4-piperidyloxy)acetic acid], the pIC50 in experiment [1] was 7.21.
As for `COc1ccc(C[C@H](NC(=O)CCCC2CCNCC2)C(=O)N2CCC(OCC(=O)O)CC2)cc1` [Compound (18), (1-(N-(4-(4-piperidyl)butanoyl)-O-methyl-L-tyrosyl)-4-piperidyloxy)acetic acid], the pIC50 on Fibrinogen is 4.20; in experiment [1] it was 6.17; in the experiment with Fibronectin, 5.14; in the experiment with Collagen, less than 4.00.
